Like-named read-outs stand apart in the source and are kept apart here. Where a SMILES comes first, the peptide text is derived from it. Bridges are numbered along the chain shown (N, C = ends).
Legend:
[1] = molecular target: T1, N‐Myc/Aurora‐A interaction (Aurora‐A122‐403‐C290A/C393A) (Homo sapiens, UniProt O14965, C290A/C393A); test: competition fluorescence anisotropy (FA) assay against fluorescein labelled N‐Myc61‐89; assay type: binding; further: equilibrated 2 h at room temperature
T1 construct: Aurora‐A 122‐403‐C290A/C393A protein was produced as described previously; made in house
T1 sequence (O14965 122-403 C290A/C393A): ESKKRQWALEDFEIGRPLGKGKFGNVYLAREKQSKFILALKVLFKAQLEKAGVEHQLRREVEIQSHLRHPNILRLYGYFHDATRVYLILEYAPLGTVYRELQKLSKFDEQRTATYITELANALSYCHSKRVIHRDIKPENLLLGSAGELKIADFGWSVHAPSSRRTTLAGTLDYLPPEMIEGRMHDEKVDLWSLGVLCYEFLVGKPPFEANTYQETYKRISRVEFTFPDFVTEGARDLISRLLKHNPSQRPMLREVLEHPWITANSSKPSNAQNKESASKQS
Experimental: Fluorescence anisotropy (FA) assays: All assays were performed using 384‐well plates (Greiner Bio‐one, UK). […] All samples were prepared in 25 mM Tris, 150 mM NaCl, 5 mM MgCl2, pH 7.5, and tested in triplicate using an EnVisionTM 2103 MultiLabel plate reader (Perkin Elmer; Waltham, MA, USA). The parameters were set as follows: Excitation wavelength=480 nm (30 nm bandwidth) and emission wavelength=535 nm (30 nm bandwidth). Measured data were processed and analysed as previously described.[31] Specifically, the perpendicular intensity (P) and parallel intensity (S) were subtracted by the control values and used for calculations of intensity and anisotropy using the following Equations 1, 2, 3, 4, and 5: (1) I=2PG+S (2) r=S-PG (3) Lb=r-rmin/λrmax-r+r-rmin (4) [drawing 1] (5) y=rmax+rmin-rmax/1+(x/x0)^p
For competition FA assays, the average anisotropy and the average standard deviation of the values derived from equation (2) were calculated and fit to a sigmoidal logistic model (equation (5)) using Origin 2021. […] Results are reported as IC50±SD, with data points representing the mean of three replicates and error bars indicating the corresponding SD. Where applicable, ΔΔG was determined as follows: ΔΔG=−RT ln (ΔIC50).

[2] = circular dichroism (CD) spectroscopy; assay type: physicochemical; details: 150 mM NaCl, 5 mM MgCl2, pH 7.5, 5 °C, n=2, free‐thiol (red) samples with 5 mol equivalents TCEP; for MRE222 (mean residue ellipticity at 222 nm): 25 mM Tris, mean ± SD, SD; for % Helicity (estimated): from MRE222 by equation 7, 25 mM Tris
Experimental: Circular dichroism (CD): All samples were prepared in Tris buffer (25 mM Tris, 150 mM NaCl, 5 mM MgCl2, pH 7.5) with the exception of free sulfhydryl peptides, to which Tris(2‐carboxyethyl)phosphine (TCEP; 5 mol eq. relative to the peptide) was added. CD spectra were recorded using an APP Chirascan CD spectropolarimeter and 1 mm pathlength quartz cuvettes. Sample concentrations were typically 30–120 μM, as determined by UV−V absorption based on a tryptophan extinction coefficient of 5600 M^−1 cm^−1 and, for mal‐constrained variants, a maleimide coefficient of 1700 M^−1 cm^−1.[16, 32] […] Spectra were recorded in duplicate at 5 °C, over wavelengths ranging from 290 to 180 nm, with data collected every 1 nm (1 nm s^−1). A background spectrum for CD buffer alone was also recorded and background ellipticity values were subtracted from raw sample ellipticity values (θ) when calculating mean residue ellipticities (MREs) using Equation 6: (6) MRE=(θλ-θ0)xMw/nxlxc
Where [θ]λ is the observed ellipticity at a given wavelength λ in mdeg, [θ]0 is the ellipticity observed for the buffer, Mw =molar weight of the peptide in g mol^−1, n=number of residues; c=sample concentration (mg mL^−1); l=pathlength of the cuvette in mm. Estimates of peptide % helicity were made using Equation 7, [33] (7) %helicity=(MRE222-MREcoil)x100/-425001-3/n
where MRE222 is the MRE value at 222 nm, MREcoil=640‐45T (with T in °C)=415 deg cm^2 dmol^−1 res^−1 at 5 °C, and n is the number of backbone amide bonds including the N‐terminal acetyl.

| SMILES | IC50 [1] | MRE222 (mean residue ellipticity at 222 nm) [2] | % Helicity (estimated) [2] | IC50 ([1]; SD) |
| --- | --- | --- | --- | --- |
| CSCC[C@@H]1NC(=O)[C@H](CCC(=O)O)NC(=O)[C@H]([C@@H](C)O)NC(=O)[C@@H](NC(=O)[C@H](Cc2c[nH]c3ccccc23)NC(=O)[C@H](CO)NC(=O)[C@@H]2CCCN2C(=O)[C@@H]2CCCN2C(=O)[C@H](CCC(=O)O)NC(=O)[C@H](CO)NC(=O)[C@H](CO)NC(=O)[C@H](Cc2c[nH]cn2)NC(=O)[C@H](CCC(=O)O)NC(=O)[C@H](C)NC(=O)[C@H](Cc2ccccc2)NC(=O)CNC(=O)[C@H](CCCNC(=N)N)NC(=O)[C@H](CO)NC(=O)[C@@H]2CCCN2C(=O)[C@H](CO)NC(=O)[C@H](CC(C)C)NC(C)=O)CSSC[C@@H](C(=O)N[C@@H](CC(C)C)C(=O)N[C@@H](CCC(=O)O)C(=O)N[C@@H](CC(N)=O)C(=O)N[C@@H](CCC(=O)O)C(=O)N[C@@H](CC(C)C)C(=O)N[C@@H](Cc2c[nH]c3ccccc23)C(=O)NCC(N)=O)NC1=O [N-Myc 61-89 V78C/L82C ox] (Ac-LSPSRGFAEHSSEPPSWCTEMCLENELWG-NH2; disulfide 18-22) | ≥ 500 µM | -2823 ± 48 deg cm^−1 dmol^−1 res^−1 | 8 ± 1% | – |
| CSCC[C@H](NC(=O)[C@H](CS)NC(=O)[C@@H](NC(=O)[C@@H](NC(=O)[C@H](Cc1c[nH]c2ccccc12)NC(=O)[C@H](CO)NC(=O)[C@@H]1CCCN1C(=O)[C@@H]1CCCN1C(=O)[C@H](CCC(=O)O)NC(=O)[C@H](CO)NC(=O)[C@H](CO)NC(=O)[C@H](Cc1c[nH]cn1)NC(=O)[C@H](CCC(=O)O)NC(=O)[C@H](C)NC(=O)[C@H](Cc1ccccc1)NC(=O)CNC(=O)[C@H](CCCNC(=N)N)NC(=O)[C@H](CO)NC(=O)[C@@H]1CCCN1C(=O)[C@H](CO)NC(=O)[C@H](CC(C)C)NC(C)=O)C(C)C)[C@@H](C)O)C(=O)N[C@@H](CC(C)C)C(=O)N[C@@H](CC(C)C)C(=O)N[C@@H](CS)C(=O)N[C@@H](CC(N)=O)C(=O)N[C@@H](CCC(=O)O)C(=O)N[C@@H](CC(C)C)C(=O)N[C@@H](Cc1c[nH]c2ccccc12)C(=O)NCC(N)=O [N-Myc 61-89E80C/E84C red] (Ac-LSPSRGFAEHSSEPPSWVTCMLLCNELWG-NH2) | – | -2562 ± 106 deg cm^−1 dmol^−1 res^−1 | 8 ± 1% | 111 ± 5 µM |
| CSCC[C@H](NC(=O)[C@H](CCC(=O)O)NC(=O)[C@@H](NC(=O)[C@@H](NC(=O)[C@H](Cc1c[nH]c2ccccc12)NC(=O)[C@H](CO)NC(=O)[C@@H]1CCCN1C(=O)[C@@H]1CCCN1C(=O)[C@H](CCC(=O)O)NC(=O)[C@H](CO)NC(=O)[C@H](CO)NC(=O)[C@H](Cc1c[nH]cn1)NC(=O)[C@H](CCC(=O)O)NC(=O)[C@H](C)NC(=O)[C@H](Cc1ccccc1)NC(=O)CNC(=O)[C@H](CCCNC(=N)N)NC(=O)[C@H](CO)NC(=O)[C@@H]1CCCN1C(=O)[C@H](CO)NC(=O)[C@H](CC(C)C)NC(C)=O)C(C)C)[C@@H](C)O)C(=O)N[C@@H](CS)C(=O)N[C@@H](CC(C)C)C(=O)N[C@@H](CCC(=O)O)C(=O)N[C@@H](CC(N)=O)C(=O)N[C@@H](CS)C(=O)N[C@@H](CC(C)C)C(=O)N[C@@H](Cc1c[nH]c2ccccc12)C(=O)NCC(N)=O [N-Myc 61-89L82C/E86C red] (Ac-LSPSRGFAEHSSEPPSWVTEMCLENCLWG-NH2) | – | -2348 ± 49 deg cm^−1 dmol^−1 res^−1 | 7 ± 1% | 120 ± 14 µM |
| CSCC[C@H](NC(=O)[C@H](CCC(=O)O)NC(=O)[C@@H](NC(=O)[C@@H](NC(=O)[C@H](Cc1c[nH]c2ccccc12)NC(=O)[C@H](CO)NC(=O)[C@@H]1CCCN1C(=O)[C@@H]1CCCN1C(=O)[C@H](CCC(=O)O)NC(=O)[C@H](CO)NC(=O)[C@H](CO)NC(=O)[C@H](Cc1c[nH]cn1)NC(=O)[C@H](CCC(=O)O)NC(=O)[C@H](C)NC(=O)[C@H](Cc1ccccc1)NC(=O)CNC(=O)[C@H](CCCNC(=N)N)NC(=O)[C@H](CO)NC(=O)[C@@H]1CCCN1C(=O)[C@H](CO)NC(=O)[C@H](CC(C)C)NC(C)=O)C(C)C)[C@@H](C)O)C(=O)N[C@@H](CC(C)C)C(=O)N[C@H]1CSSC[C@@H](C(=O)N[C@@H](Cc2c[nH]c3ccccc23)C(=O)NCC(N)=O)NC(=O)[C@H](CCC(=O)O)NC(=O)[C@H](CC(N)=O)NC(=O)[C@H](CCC(=O)O)NC1=O [N-Myc 61-89L83C/L87C ox] (Ac-LSPSRGFAEHSSEPPSWVTEMLCENECWG-NH2; disulfide 23-27) | – | -2223 ± 37 deg cm^−1 dmol^−1 res^−1 | 7 ± 1% | 103 ± 11 µM |
| CSCC[C@H](NC(=O)[C@H](CCC(=O)O)NC(=O)[C@@H](NC(=O)[C@@H](NC(=O)[C@H](Cc1c[nH]c2ccccc12)NC(=O)[C@H](CO)NC(=O)[C@@H]1CCCN1C(=O)[C@@H]1CCCN1C(=O)[C@H](CCC(=O)O)NC(=O)[C@H](CO)NC(=O)[C@H](CO)NC(=O)[C@H](Cc1c[nH]cn1)NC(=O)[C@H](CCC(=O)O)NC(=O)[C@H](C)NC(=O)[C@H](Cc1ccccc1)NC(=O)CNC(=O)[C@H](CCCNC(=N)N)NC(=O)[C@H](CO)NC(=O)[C@@H]1CCCN1C(=O)[C@H](CO)NC(=O)[C@H](CC(C)C)NC(C)=O)C(C)C)[C@@H](C)O)C(=O)N[C@@H](CC(C)C)C(=O)N[C@@H](CS)C(=O)N[C@@H](CCC(=O)O)C(=O)N[C@@H](CC(N)=O)C(=O)N[C@@H](CCC(=O)O)C(=O)N[C@@H](CS)C(=O)N[C@@H](Cc1c[nH]c2ccccc12)C(=O)NCC(N)=O [N-Myc 61-89L83C/L87C red] (Ac-LSPSRGFAEHSSEPPSWVTEMLCENECWG-NH2) | – | -1746 ± 74 deg cm^−1 dmol^−1 res^−1 | 6 ± 1% | 181 ± 9 µM |
| CC(=O)N[C@@H](CC(C)C)C(=O)N[C@@H](CO)C(=O)N1CCC[C@H]1C(=O)N[C@@H](CO)C(=O)N[C@@H](CCCNC(=N)N)C(=O)NCC(=O)N[C@@H](Cc1ccccc1)C(=O)N[C@@H](C)C(=O)N[C@@H](CCC(=O)O)C(=O)N[C@@H](Cc1c[nH]cn1)C(=O)N[C@@H](CO)C(=O)N[C@@H](CO)C(=O)N[C@@H](CCC(=O)O)C(=O)N1CCC[C@H]1C(=O)N1CCC[C@H]1C(=O)N[C@@H](CO)C(=O)N[C@@H](Cc1c[nH]c2ccccc12)C(=O)N[C@H](C(=O)N[C@H](C(=O)N[C@@H](CCC(=O)O)C(=O)N[C@@H](CS)C(=O)N[C@@H](CC(C)C)C(=O)N[C@@H](CC(C)C)C(=O)N[C@@H](CCC(=O)O)C(=O)N[C@@H](CS)C(=O)N[C@@H](CCC(=O)O)C(=O)N[C@@H](CC(C)C)C(=O)N[C@@H](Cc1c[nH]c2ccccc12)C(=O)NCC(N)=O)[C@@H](C)O)C(C)C [N-Myc 61-89M81C/N85C red] (Ac-LSPSRGFAEHSSEPPSWVTECLLECELWG-NH2) | – | -2198 ± 93 deg cm^−1 dmol^−1 res^−1 | 7 ± 1% | 164 ± 6 µM |
